# Legend:
# perfused dog hind limb = experiment: Peripheral vasodilator activity, perfused dog hind limb (anesthetized dog); assay type: in vivo
# Description: Test Method. Mongrol dogs of either sex weighing between 11 and 16 kg., each, were anesthetized with pentobarbital (30 mg./kg.) administered intravenously. The left brachial vein was cannulated and pentobarbital infused continuously throughout the experiment at a rate of 5 mg./kg./hr. A tracheotomy was performed and dogs ventilated mechanically with room air at a rate of 18 strokes/min. and a volume equivalent to 20 ml./kg. The vagi were sectioned bilaterally in the mid-cervical region of the neck. The right brachial vein and artery were cannulated to inject drugs and to monitor blood pressure via a Statham pressure transducer, respectively. All measurements were recorded on a Beckman-Offner dynograph. The abdominal aorta was exposed through midline incision and a loose ligature placed around the aorta distal to the left renal artery. The right (donor) and left (recipient) femoral arteries were exposed for cannulation and subsequent hind-limb perfursion. Following intravenous administration of heparin (5 mg/kg.) and gallamine triethiodide (2 mg./kg.), the right femoral artery was cannulated and the tip of the catheter advanced into the abdominal aorta to the level of the renal arteries. The left femoral artery was cannulated and the hind-limb perfused using a Harvard Perfusion pump. The ligature previously placed around the aorta was subsequently tied to minimize collateral circulation. […] Perfusion pressure, measured at a point distal to the perfusion pump was set equal to 150 mm Hg. by adjusting pump speed. Blood flow to the limb was determined volumetrically at the conclusion of the experiment. The test agent was administered by infusion at a rate of from 0.1-1.0 mg./min. for a six-minute period and maximum reduction in pressure determined. One to three animals were employed per test agent. […] This protocol precludes effects resulting from animal variation thus permitting a direct side-by-side comparison of vasodilating activity.
# adrenergic beta-receptor = target: T1, adrenergic beta-receptor (Cavia porcellus, UniProt Q8K4Z4); experiment: Beta-adrenergic blocking activity in the isolated guinea pig trachea (isoproterenol); assay type: cell-based; conditions: potency relative to propanol (equals one); isoproterenol 0.1 mcg./ml.
# T1 construct: Tracheas excised from adult guinea pigs; from tissue; host or cells: guinea pig trachea (spirally cut segments)
# T1 sequence (Q8K4Z4 whole entry): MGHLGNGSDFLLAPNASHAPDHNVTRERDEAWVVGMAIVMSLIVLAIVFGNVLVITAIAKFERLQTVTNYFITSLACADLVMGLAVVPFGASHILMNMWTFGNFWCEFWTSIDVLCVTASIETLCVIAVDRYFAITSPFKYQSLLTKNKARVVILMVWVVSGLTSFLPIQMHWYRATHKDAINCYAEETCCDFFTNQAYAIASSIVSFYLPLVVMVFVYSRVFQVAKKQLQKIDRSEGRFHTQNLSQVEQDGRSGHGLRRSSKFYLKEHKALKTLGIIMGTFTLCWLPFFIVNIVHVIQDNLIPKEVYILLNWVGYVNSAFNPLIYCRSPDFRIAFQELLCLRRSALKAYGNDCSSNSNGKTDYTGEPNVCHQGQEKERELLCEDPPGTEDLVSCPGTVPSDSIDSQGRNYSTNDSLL
# Description: Test Method. […] The lower end of a tracheal segment is fixed to a stationary glass rod and the upper end is threaded to an isometric tension transducer. Changes in the spontaneous tonus of the tracheal smooth muscle are monitored via the transducer and recorded continuously on an electronic recorder. Adrenergic beta-receptor blocking activity is determined by the ability of a test agent to inhibit the response of the isolated tissue to the adrenergic beta-stimulant "isoproterenol" at a concentration of 0.1 mcg./ml. bath fluid. The tissues are exposed to the test agent solution for a 15-min. interval prior to the addition of isoproterenol to the bath fluid. Beta-receptor blocking potency of a test drug is ascertained from concentration-response relationships wherein the response is expressed as a percent inhibition of isoproterenol-induced tissue response. […] Each drug solution is added to the tissue bathing medium at a constant volume of 0.2 ml./ml. of bath fluid and only one test drug concentration is employed for an individual tissue segment. Potency of the test agent relative to that of the beta-adrenergic blocking agent "propanolol" as a reference standard is assessed by comparing the IC50 values.
# rabbit eye = experiment: Local anesthetic activity, topical application to the rabbit eye; assay type: in vivo
# mesenteric arteries [1] = experiment: Basal tone of mesenteric arteries of dogs; set-up: species or system dog
# Excerpt: (§1) (b) The compound of Example 2 elevated basal tone of mesenteric arteries of dogs and rabbits. This effect is considered valuable in the treatment of peripheral and cerebral vascular diseases.
# red blood cell = experiment: Red blood cell rigidity via chromium^51 labeling technique; assay type: cell-based
# [2] = tested on: human platelet-rich plasma; experiment: Inhibition of platelet aggregation in vitro (ADP or collagen induced; antithrombogenic activity); assay type: cell-based
# Description: Test Method. A method similar to that described in Born, Nature 194, 927 (1962) and O'Brien, J. Clinical Pathology 15, 446 (1962). This test comprises a nephelometric method in which the change in turbidity of a specimen of human platelet-rich plasma is measured on causation of platelet aggregation by addition of adenosine diphosphate (ADP) or collagen as the thrombogenic inducing agent. An increase in transmittance light occurs when the thrombogenic agent is added to the specimen of platelet-rich plasm due to clumping of platelets. Efficacy of the test compound is determined by ability to prevent the clumping and concommitant increase in transmittance. Various concentrations of the test agent are tested and that concentration causing a 50% reduction in the thrombogenic response is determined from a concentration-response curve.
# mesenteric arteries [3] = experiment: Basal tone of mesenteric arteries of rabbits; set-up: species or system rabbit
# Excerpt: as §1
# platelet survival = experiment: Platelet survival time in rats with intra-arterial catheters; assay type: in vivo, rat
# Excerpt: (a) Rats with intra-arterial catheters have periods of shortened platelet survival time. This shortened survival time is normalized with the compound of Example 2.
# guinea pig skin = experiment: Local anesthetic activity, intradermal infiltration of guinea pig skin; assay type: in vivo
# rabbit thoracic aorta = experiment: Isolated rabbit thoracic aorta, antispasmodic activity vs. potassium chloride; assay type: cell-based, rabbit (New Zealand White); conditions: potency relative to papaverine (equals one), from pA2 vs. potassium chloride
# Description: Test Method. Antispasmodic activity was assessed in vitro by determining the effect of the test substance on induced contraction of arterial smooth muscle as follows. Adult, male, New Zealand White rabbits (body weight 2.5-4 kg.) were used. Each rabbit was killed by i.v. air injection. The thorax was opened and the descending thoracic aorta removed and placed in Kreb's-bicarbonate solution. Extraneous tissue was removed and the aorta was cut spirally along its entire length. Four spiral segments, each approximately 2 cm. in length (unstretched), were obtained from each thoracic aorta. […] The bath medium surrounding the aortic spiral (Kreb's-bicarbonate solution) was maintained at 37.5°C. and constantly aerated with 95% O2 :5% CO2. Activity of the aortic smooth muscle was recorded on an electronic polygraph via its connection to the tension transducer. After an equilibration period of 60 min., a cumulative dose-response curve was obtained to an agonist (e.g. potassium chloride or norepinephrine) and the tissue then washed. Seventy-five min. later, a second cumulative dose-response curve to the agonist was obtained and the tissue washed again. Sixty min. later, a test drug solution was added to the tissue bath fluid and, after 15 min., drug exposure and, without washing, a third and final agonist-response curve was obtained. All additions to the bath fluid were 0.1 ml. volumes of aqueous solutions.
# [4] = 0.3 mg./min., side-by-side comparison
smiles,measurement,setting,value
"CCCCCCCCNCC(O)COc1ccc(SC(C)C)cc1.Cl (stereo not drawn) [Example 2, 1-[4-[(1-Methylethyl)thio]phenoxy]-3-(octylamino)-2-propanol Hydrochloride]",vasodilator effect relative to test agent A,perfused dog hind limb; [4],approximately 3.2 times
same,vasodilator effect relative to test agent B,perfused dog hind limb; [4],~21 times
same,Pressure Decrease,perfused dog hind limb; infusion rate 0.3 mg./min.,-44 Millimeters of mercury
same,Pressure Decrease,"perfused dog hind limb; infusion rate 0.3 mg./min., side-by-side comparison in same animals",-63 Millimeters of mercury
same,Pressure Decrease,perfused dog hind limb; infusion rate 1.0 mg./min.,-99 Millimeters of mercury
same,Beta-Adrenergic Blocking Potency,adrenergic beta-receptor,< 0.001
same,local anesthetic activity vs. lidocaine,rabbit eye,greater than
same,basal tone of mesenteric arteries,mesenteric arteries [1],elevated
same,red blood cell rigidity,red blood cell,decreased
same,ED50 ADP (inhibition of platelet aggregation),[2]; aggregation induced by 1 mcg. ADP,56 Microgram/0.5 ml. plateletrich human plasma
same,ED50 Coll (inhibition of platelet aggregation),[2]; minimal amount of collagen producing maximal aggregation,31 Microgram/0.5 ml. plateletrich human plasma
same,basal tone of mesenteric arteries,mesenteric arteries [3],elevated
same,shortened platelet survival time,platelet survival,normalized
same,local anesthetic activity vs. lidocaine,guinea pig skin,as great as
same,Antispasmodic Potency,rabbit thoracic aorta,0.6

# Source: patent US4243681A, “Alkylthiophenoxypropanolamines and pharmaceutical compositions and uses thereof” (priority 1979, dated 1981)
